{"source": "paper PMC3791872", "about": "(Bioscience Reports, 2013)", "target": "T1, SsoMcm (Sulfolobus solfataricus Mcm protein) complex (Saccharolobus solfataricus, UniProt Q9UXG1)", "T1 sequence (Q9UXG1 1-686)": "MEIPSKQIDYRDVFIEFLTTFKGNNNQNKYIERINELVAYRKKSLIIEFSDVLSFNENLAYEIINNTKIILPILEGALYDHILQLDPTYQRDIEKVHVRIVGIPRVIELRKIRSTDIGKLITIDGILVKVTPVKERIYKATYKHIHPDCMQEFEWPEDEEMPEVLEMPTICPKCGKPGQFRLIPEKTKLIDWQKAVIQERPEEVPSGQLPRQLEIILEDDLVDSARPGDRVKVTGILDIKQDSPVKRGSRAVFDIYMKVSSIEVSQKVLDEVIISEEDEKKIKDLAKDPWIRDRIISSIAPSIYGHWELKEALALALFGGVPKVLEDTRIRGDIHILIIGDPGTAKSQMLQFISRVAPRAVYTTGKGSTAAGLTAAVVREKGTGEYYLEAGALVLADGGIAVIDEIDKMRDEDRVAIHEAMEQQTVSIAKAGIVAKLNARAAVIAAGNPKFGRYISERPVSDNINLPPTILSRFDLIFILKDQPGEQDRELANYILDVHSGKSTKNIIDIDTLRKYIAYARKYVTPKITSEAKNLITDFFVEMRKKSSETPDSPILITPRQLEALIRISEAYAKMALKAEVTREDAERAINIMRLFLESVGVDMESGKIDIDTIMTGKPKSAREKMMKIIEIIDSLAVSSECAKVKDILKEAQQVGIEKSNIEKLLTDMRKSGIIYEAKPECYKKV", "assay": "SsoMcm helicase assay", "assay_type": "biochemical", "conditions": "1 mM, 65°C, Figure S3", "method": "Helicase assays were performed essentially as described. Synthetic replication forks were prepared by annealing oligos 233 and 235 [IDT (Coralville), oligo 233 5′(T)40[…]; oligo 235 5′ […](T)40] and then filling in the recessed 3′-end with [α32P]dATP and unlabelled dNTPs using Klenow Fragment. Briefly, reactions ([…]) were performed in 1× helicase assay buffer [20 mM Tris/HCl (pH 7.5), 10 mM MgOAc, 20% (v/v) glycerol, 100 μM EDTA and 5 mM DTT (dithiothreitol)] and contained a final concentration of 1 nM fork substrate, 5 mM ATP, 40 mM creatine phosphate, […] creatine kinase, 33 μg/ml BSA. Reactions containing Mcm2-7 and Mcm467 were supplemented with 200 mM potassium glutamate. Reactions containing SsoMcm were incubated at 65°C, those containing T4 gp41 were incubated for 30 min at 37°C, and all other reactions were incubated at 37°C for 1 h. The products were separated by 10% (w/v) native PAGE, the resulting gels dried and the radioactivity quantified using a Fuji FLA-5100 phosphoimager. […] ATP was separated from ADP by PEI (polyethyleneimine) thin layer chromatography, and the ratio of ATP:ADP was quantified using a Fuji FLA-5100 phosphoimager. […] Protein–ssDNA binding was determined with a double filter-binding assay using an ssDNA probe (oligo 826, 5′[…]) that was 5′-radiolabelled using T4 polynucleotide kinase and [γ32P]ATP [16]. […]"}
{"smiles": "O=C(O)c1cn(C2CC2)c2cc(N3CCNCC3)c(F)cc2c1=O", "note": "[Ciprofloxacin, ciprofloxacin, reference compound]", "values": [{"measurement": "inhibition of SsoMcm helicase", "result": "none of the tested helicases were substantially inhibited"}]}
